Values belong to the compound of their own block, whether it stands above or below them. Activity calls are given as the source filed them. The calls are words filed in the database; no cut-off is given here.
Legend:
[1] = Drug uptake in iv dosed Sprague-Dawley rat cerebral cortex measured for 90 mins by PET imaging based analysis; format: ADME, organism-based; details: in vivo, 1.5 h
[2] = Drug uptake in iv dosed Sprague-Dawley rat striatum measured for 90 mins by PET imaging based analysis; format: ADME, organism-based; details: in vivo, 1.5 h
[3] = Drug uptake in iv dosed Sprague-Dawley rat hippocampus measured for 90 mins by PET imaging based analysis; format: ADME, organism-based; details: in vivo, 1.5 h
[4] = Drug uptake in iv dosed Sprague-Dawley rat cerebellum measured for 90 mins by PET imaging based analysis; format: ADME, organism-based; details: in vivo, 1.5 h
[5] = Drug uptake in iv dosed Sprague-Dawley rat pons measured for 90 mins by PET imaging based analysis; format: ADME, organism-based; details: in vivo, 1.5 h
[6] = Drug uptake in mouse brain treated with MAGL inhibitor, JNJ-42226314 at 15 mins post-drug administration by PET imaging based analysis; format: ADME, tissue-based; details: in vivo, 0.25 h
[7] = Drug uptake in iv dosed rhesus monkey brain by PET imaging based analysis; format: ADME, organism-based, Macaca mulatta; details: in vivo
[8] = Drug uptake in iv dosed rhesus monkey cortex by PET imaging based analysis; format: ADME, organism-based, Macaca mulatta; details: in vivo
[9] = Drug uptake in iv dosed rhesus monkey cerebellum by PET imaging based analysis; format: ADME, organism-based, Macaca mulatta; details: in vivo
[10] = Drug uptake in iv dosed rhesus monkey hippocampus by PET imaging based analysis; format: ADME, organism-based, Macaca mulatta; details: in vivo
[11] = Drug uptake in iv dosed rhesus monkey striatum by PET imaging based analysis; format: ADME, organism-based, Macaca mulatta; details: in vivo
[12] = Drug uptake in iv dosed rhesus monkey pons by PET imaging based analysis; format: ADME, organism-based, Macaca mulatta; details: in vivo
[13] = Drug uptake in iv dosed rhesus monkey cortex measured after 60 mins by PET imaging based analysis; format: ADME, organism-based, Macaca mulatta; details: in vivo, 1 h
[14] = Drug uptake in iv dosed rhesus monkey cerebellum measured after 60 mins by PET imaging based analysis; format: ADME, organism-based, Macaca mulatta; details: in vivo, 1 h
[15] = Drug uptake in iv dosed rhesus monkey hippocampus measured after 60 mins by PET imaging based analysis; format: ADME, organism-based, Macaca mulatta; details: in vivo, 1 h
[16] = Drug uptake in iv dosed rhesus monkey striatum measured after 60 mins by PET imaging based analysis; format: ADME, organism-based, Macaca mulatta; details: in vivo, 1 h
[17] = Drug uptake in iv dosed CD-1 mouse heart measured after 60 mins by Ex vivo whole body biodistribution based analysis; format: ADME, organism-based; details: 1 h
[18] = Drug uptake in iv dosed CD-1 mouse lung measured after 60 mins by Ex vivo whole body biodistribution based analysis; format: ADME, organism-based; details: 1 h
[19] = Drug uptake in iv dosed CD-1 mouse pancreas measured after 60 mins by Ex vivo whole body biodistribution based analysis; format: ADME, organism-based; details: 1 h
[20] = Drug uptake in iv dosed CD-1 mouse kidney measured after 60 mins by Ex vivo whole body biodistribution based analysis; format: ADME, organism-based; details: 1 h
[21] = Drug uptake in iv dosed CD-1 mouse liver measured after 60 mins by Ex vivo whole body biodistribution based analysis; format: ADME, organism-based; details: 1 h
[22] = Metabolic stability of the compound in iv dosed Sprague-Dawley rat brain assessed as parent compound remaining measured after 30 mins by radio-HPLC analysis; format: ADME, organism-based; details: read-out: Stability
[23] = Metabolic stability of the compound in iv dosed Sprague-Dawley rat plasma assessed as parent compound remaining measured after 30 mins by radio-HPLC analysis; format: ADME, organism-based; details: read-out: Stability
[24] = Metabolic stability of the compound in iv dosed Sprague-Dawley rat brain assessed as parent compound remaining measured after 60 mins by radio-HPLC analysis; format: ADME, organism-based; details: read-out: Stability
[25] = Metabolic stability of the compound in iv dosed Sprague-Dawley rat plasma assessed as parent compound remaining measured after 60 mins by radio-HPLC analysis; format: ADME, organism-based; details: read-out: Stability
[26] = Drug uptake in iv dosed rhesus monkey pons measured after 60 mins by PET imaging based analysis; format: ADME, organism-based, Macaca mulatta; details: in vivo, 1 h
[27] = Drug uptake in iv dosed CD-1 mouse small intestine measured after 60 mins by Ex vivo whole body biodistribution based analysis; format: ADME, organism-based; details: 1 h
[28] = molecular target: T1, Neutral cholesterol ester hydrolase 1 (Mus musculus) (UniProt Q8BLF1); test: Displacement of FP-rhodamine from KIAA1363 in mouse brain membrane fraction preincubated for 30 mins followed by FP-rhodhamine addition for 10 mins by Activity-Based Protein Profiling analysis; format: cell membranes; details: time 40.0 min
T1 sequence (whole entry): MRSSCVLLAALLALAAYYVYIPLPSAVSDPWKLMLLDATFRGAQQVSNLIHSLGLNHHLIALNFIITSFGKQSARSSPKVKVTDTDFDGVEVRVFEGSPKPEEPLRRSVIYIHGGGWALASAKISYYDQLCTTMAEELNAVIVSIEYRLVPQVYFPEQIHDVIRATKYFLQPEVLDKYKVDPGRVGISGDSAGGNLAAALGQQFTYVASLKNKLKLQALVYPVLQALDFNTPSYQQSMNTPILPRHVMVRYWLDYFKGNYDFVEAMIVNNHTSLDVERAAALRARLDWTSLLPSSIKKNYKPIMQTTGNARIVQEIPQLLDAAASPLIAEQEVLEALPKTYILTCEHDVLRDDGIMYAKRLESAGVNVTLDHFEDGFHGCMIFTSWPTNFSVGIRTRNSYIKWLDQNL

[29] = molecular target: T2, Lysophosphatidylserine lipase ABHD12 (Mus musculus) (UniProt Q99LR1); test: Displacement of FP-rhodamine from ABHD12 in mouse brain membrane fraction preincubated for 30 mins followed by FP-rhodhamine addition for 10 mins by Activity-Based Protein Profiling analysis; format: cell membranes; details: time 40.0 min
T2 sequence (whole entry): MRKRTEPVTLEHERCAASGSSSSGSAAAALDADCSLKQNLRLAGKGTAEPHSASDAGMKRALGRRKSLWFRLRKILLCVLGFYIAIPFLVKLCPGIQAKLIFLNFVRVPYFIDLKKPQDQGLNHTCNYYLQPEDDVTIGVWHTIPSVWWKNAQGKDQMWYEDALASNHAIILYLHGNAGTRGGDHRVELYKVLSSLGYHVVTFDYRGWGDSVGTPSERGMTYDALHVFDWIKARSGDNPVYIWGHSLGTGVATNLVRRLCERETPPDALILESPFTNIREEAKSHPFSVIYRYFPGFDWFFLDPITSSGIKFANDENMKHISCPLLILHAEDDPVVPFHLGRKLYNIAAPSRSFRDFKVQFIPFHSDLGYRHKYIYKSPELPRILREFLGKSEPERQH

[30] = molecular target: T3, Fatty-acid amide hydrolase 1 (Mus musculus) (UniProt O08914); test: Displacement of FP-rhodamine from FAAH in mouse brain membrane fraction preincubated for 30 mins followed by FP-rhodhamine addition for 10 mins by Activity-Based Protein Profiling analysis; format: cell membranes; details: time 40.0 min
T3 sequence (whole entry): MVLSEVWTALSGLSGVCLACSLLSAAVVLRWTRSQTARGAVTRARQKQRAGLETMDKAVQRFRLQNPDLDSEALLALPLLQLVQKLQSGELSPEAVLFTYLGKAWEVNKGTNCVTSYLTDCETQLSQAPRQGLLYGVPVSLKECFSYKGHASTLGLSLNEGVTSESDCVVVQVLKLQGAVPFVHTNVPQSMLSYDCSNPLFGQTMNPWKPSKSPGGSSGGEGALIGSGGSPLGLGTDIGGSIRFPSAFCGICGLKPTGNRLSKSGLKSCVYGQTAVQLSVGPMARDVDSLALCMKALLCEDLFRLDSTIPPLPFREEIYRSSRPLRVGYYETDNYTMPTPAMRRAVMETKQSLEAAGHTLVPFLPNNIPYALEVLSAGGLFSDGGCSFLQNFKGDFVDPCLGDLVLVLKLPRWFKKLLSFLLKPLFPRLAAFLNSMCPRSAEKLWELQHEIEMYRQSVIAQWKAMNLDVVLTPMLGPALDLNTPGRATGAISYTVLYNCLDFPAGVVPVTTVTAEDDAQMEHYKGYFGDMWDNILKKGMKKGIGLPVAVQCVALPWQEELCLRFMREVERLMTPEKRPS

[31] = molecular target: T4, Monoacylglycerol lipase ABHD6 (Mus musculus) (UniProt Q8R2Y0); test: Displacement of FP-rhodamine from ABHD6 in mouse brain membrane fraction preincubated for 30 mins followed by FP-rhodhamine addition for 10 mins by Activity-Based Protein Profiling analysis; format: cell membranes; details: time 40.0 min
T4 sequence (whole entry): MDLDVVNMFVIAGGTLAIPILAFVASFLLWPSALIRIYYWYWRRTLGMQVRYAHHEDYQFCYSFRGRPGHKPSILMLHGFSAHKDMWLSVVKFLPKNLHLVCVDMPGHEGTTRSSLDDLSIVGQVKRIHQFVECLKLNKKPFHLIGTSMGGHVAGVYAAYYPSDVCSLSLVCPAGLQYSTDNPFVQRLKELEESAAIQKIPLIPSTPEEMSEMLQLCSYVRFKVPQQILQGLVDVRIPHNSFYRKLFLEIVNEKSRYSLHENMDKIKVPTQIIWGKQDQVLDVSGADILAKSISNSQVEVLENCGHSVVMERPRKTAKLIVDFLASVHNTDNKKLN

[32] = Lipophilicity, logD of the compound by shake flask method; format: physicochemical; details: octanol/water

- SUVmax [1]: 0.8
- Drug uptake [2]: Active
- Drug uptake [3]: Active
- Drug uptake [4]: Active
- Drug uptake [5]: Active
- Drug uptake [6]: Not Active
- SUVmax [7]: 0.9
- Drug uptake [8]: Active
- Drug uptake [9]: Active
- Drug uptake [10]: Active
- Drug uptake [11]: Active
- Drug uptake [12]: Active
- Drug uptake [13]: Not Active
- Drug uptake [14]: Not Active
- Drug uptake [15]: Not Active
- Drug uptake [16]: Not Active
- Drug uptake [17]: Not Active
- Drug uptake [18]: Not Active
- Drug uptake [19]: Not Active
- Drug uptake [20]: Not Active
- Drug uptake [21]: Active
- remaining at 0.5 h [22]: 97%
- remaining at 0.5 h [23]: 81%
- remaining at 1 h [24]: 94%
- remaining at 1 h [25]: 56%
- Drug uptake [26]: Not Active
- Drug uptake [27]: Active
SMILES: O=C(c1ccc2c(ccn2-c2ccc([18F])cc2)c1)N1CC(N2CCN(C(=O)c3nccs3)CC2)C1

SMILES: O=C(c1ccc2c(ccn2-c2ccc(F)cc2)c1)N1CC(N2CCN(C(=O)c3nccs3)CC2)C1
- inhibition [28]: inactive
- inhibition [29]: inactive
- inhibition [30]: inactive
- inhibition [31]: inactive
- logD [32]: 3.28
